From patent US7803792B2, “Quaternary ammonium compounds” (Asahi Kasei Pharma Corporation, priority 2002, dated 2010)

Key:
human IBAT = target: T1, human IBAT (Homo sapiens, UniProt Q12908); assay: In vitro assay of temporarily expressed human IBAT transporter using Cos 7 cells (Test Example 8); type: cell-based; details: Cos 7 cells temporarily expressing human IBAT; [3H] taurocholate 8 μM, 37° C., 60 minutes
T1 construct: expressed in transfected cells; host or cells: Cos 7
T1 sequence (Q12908 1-348): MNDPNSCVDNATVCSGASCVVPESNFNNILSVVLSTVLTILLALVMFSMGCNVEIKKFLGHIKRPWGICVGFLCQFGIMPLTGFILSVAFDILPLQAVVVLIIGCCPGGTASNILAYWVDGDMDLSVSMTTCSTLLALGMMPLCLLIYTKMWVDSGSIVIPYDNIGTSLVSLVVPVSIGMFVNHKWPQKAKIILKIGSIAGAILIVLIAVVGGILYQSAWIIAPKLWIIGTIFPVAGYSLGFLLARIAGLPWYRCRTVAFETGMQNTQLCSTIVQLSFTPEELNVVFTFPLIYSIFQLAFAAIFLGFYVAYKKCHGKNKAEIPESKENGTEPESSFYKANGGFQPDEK
Method in brief: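 Cos 7 cells transiently transfected with human or rat IBAT cDNA, assayed one day later in Hank's buffer with 25 mM glucose, 10 mM HEPES (pH 7.4) plus compound. Uptake of 8 μM [^3H]taurocholate over 60 min at 37 °C, stopped with 1 mM taurocholate washes; lysate radioactivity by scintillation counting.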

[1] = system: bile duct partial ligation model; assay: Cholestasis-caused hepatopathy model, bile duct partial ligation, protocol A (Test Example 5); type: in vivo, rat; details: 1 mg/kg twice a day 3.5 days, 1% HCO60, average ± standard error; for ALT: controls 417 ± 185 / 384 ± 156; for AST: controls 589 ± 221 / 643 ± 125; for ALP: controls 2318 ± 583 / 2204 ± 327
Procedure: “Cholestasis-Caused Hepatopathy” Model (Bile Duct Partial Ligation Model)
The “cholestasis-caused hepatopathy” model by partial ligation surgery of bile duct in this test example was handled by referring to the method by Kanno et al. [Kanzo (Liver) 43 Suppl (1): A126, 2002].
That is, the abdomen of a 7 to 10 weeks old SD (IGS) male rat was cut open under anesthesia with pentobarbital and partial ligation surgery of the bile duct was carried out. A blood sample was taken from the femoral vein before the surgery and this was taken as pre-administration value. The test compound and 200 mg/kg of bile acid were forcibly orally administered twice a day for 3.5 days from the next day of the surgery (protocol A). The test compound and 200 mg/kg of bile acid were forcibly orally administered twice a day for 3.5 days without carrying out the partial ligation surgery (protocol B). In both the cases, the test compound was dissolved or suspended in distilled water or an aqueous solution of 1% HCO60 (manufactured by NIPPON CHEMICALS COMPANY, LTD.). […] Moreover, to consider the influence of the surgery, a pseudo operation group (a Sham group) was established as necessary. After 6 hours from the administration of the drug on the last day of the test, a blood sample was taken from the abdominal aorta and AST (GOT), ALT (GPT), and ALP in the blood were measured by using a measurement kit (GOTII-HA TEST WAKO, GPTII-HA TEST WAKO, and ALKALINE PHOSPHER-HA TEST WAKO respectively, all manufactured by WAKO PURE CHEMICAL […], LTD.) with an auto analyzer (NITTECH ANALYZER SUPER Z818).

KKAy/Ta Jcl obese mice = assay: Obesity and fatty liver model (Test Example 6); type: in vivo, mouse; details: average ± standard error; for Body Weight (g) 2 weeks later / Liver triglyceride / Body Weight (g) Variation amount: 1 mg/kg once a day for 2 weeks; for Liver triglyceride: controls 94 ± 18 / 103 ± 19; for Body Weight (g) Variation amount: controls −0.8 ± 0.5 / 0.7 ± 0.4; for Body Weight (g) Before administration: baseline of the 1 mg/kg group
Procedure: Obesity and Fatty Liver Model
The obesity and fatty liver model in this test example was handled by referring to the method described in WO02/09757.
That is, 10 weeks old KKA^y/Ta Jcl male mice were used as obese mice (N=from 4 to 7). The test compounds dissolved or suspended in an aqueous solution of 1% HCO60 (manufactured by NIPPON CHEMICALS COMPANY, LTD.) and an aqueous solution of 1% HCO60 (manufactured by NIPPON CHEMICALS COMPANY, LTD.) as a control group were administered once a day for 2 weeks continuously. The weights of the mice were measured every day and compared with the weights measured on the day before the administration. On the day next to the final day of administration of the drug, the livers were extracted and concentrations of triglycerides in the liver tissues were measured by using a measurement kit (TRIGLYCERIDE TEST WAKO, manufactured by WAKO PURE CHEMICAL […], LTD.).

Caco 2 cells = assay: Toxicity with respect to alimentary canal: cytotoxicity to Caco 2, LDH activity (Test Example 12); type: cell-based, human; details: LDH activity after 2 hours, relative to cytolytic agent = 100%
Method in brief: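 Human Caco 2 intestinal cells, cultured 48 hours after seeding at 10,000 cells/well, received test compounds diluted in medium. LDH released into the medium after 2 hours was measured and expressed relative to cytolytic-agent-lysed cells (100%) as cytotoxicity.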

Compound	IC50 (human IBAT) [µM]	ALT [1] [IU/L]	AST [1] [IU/L]	ALP [1] [IU/L]	Body Weight (g) 2 weeks later (KKAy/Ta Jcl obese mice) [g]	Liver triglyceride (KKAy/Ta Jcl obese mice) [mg/g]	Body Weight (g) Variation amount (KKAy/Ta Jcl obese mice) [g]	Body Weight (g) Before administration (KKAy/Ta Jcl obese mice) [g]	Toxicity (%) to Caco 2 (Caco 2 cells; 3 μM) [%]	Toxicity (%) to Caco 2 (Caco 2 cells; 10 μM) [%]	Toxicity (%) to Caco 2 (Caco 2 cells; 30 μM) [%]
CCCCC1(CCCC)CS(=O)(=O)c2ccc(N(C)C)cc2C(c2cccc(NC(=S)CCCCC[N+]34CCC(CC3)CC4)c2)N1.[Br-] (centres unmarked) [Example 1, 1-{5-[3-(3,3-Dibutyl-7-dimethylamino-1,1-dioxo-2,3,4,5-tetrahydro-1,4-benzothiazepin-5-yl)phenylthiocarbamoyl]pentyl}-1-azoniabicyclo[2.2.2]octane bromide]	0.025	–	–	–	–	–	–	–	–	–	–
CCCCC1(CCCC)CS(=O)(=O)c2ccc(N(C)C)cc2C(c2cccc(NC(=S)Nc3ccc(C[N+](C)(C)Cc4ccccc4)cc3)c2)N1.[Br-] (centres unmarked) [Example 3440]	0.037	155 ± 38	309 ± 37	1614 ± 189	43.9 ± 1.8	88 ± 6	-0.7 ± 1.0	44.6 ± 0.8	<1	<1	<1
C#CC[N+](C)(Cc1ccccc1)Cc1ccc(NC(=S)Nc2cccc(C3NC(CCCC)(CCCC)CS(=O)(=O)c4ccc(N(C)C)cc43)c2)cc1 (centres unmarked) [Example 3448]	0.037	181 ± 79	352 ± 210	1148 ± 332	42.1 ± 3.2	74 ± 8	-2.0 ± 0.7	44.1 ± 0.7	<1	<1	<1
CCCCC1(CCCC)CS(=O)(=O)c2ccc(N(C)C)cc2C(c2cccc(NC(=S)Nc3ccc(C[N+]4(Cc5ccccc5)CCC(O)CC4)cc3)c2)N1.[Br-] (centres unmarked) [Example 3605]	0.039	258 ± 219	487 ± 382	1489 ± 533	41.4 ± 1.0	65 ± 7	-1.5 ± 0.4	42.9 ± 1.1	<1	<1	<1
CCCCC1(CCCC)CS(=O)(=O)c2ccc(N(C)C)cc2C(c2cccc(NC(=S)Nc3ccc(C[N+]45CCC(c6ccccc6)(CC4)CC5)cc3)c2)N1.[Br-] (centres unmarked) [Example 3696]	0.039	191 ± 21	325 ± 87	1209 ± 125	42.2 ± 2.2	76 ± 12	-1.3 ± 0.3	43.5 ± 1.3	<1	<1	<1
CCCCC1(CCCC)CS(=O)(=O)c2ccc(N(C)C)cc2C(c2cccc(NC(=S)Nc3ccc(C[n+]4ccc(C(C)(C)C)cc4)cc3)c2)N1.[Br-] (centres unmarked) [Example 3713]	0.037	163 ± 96	280 ± 61	1008 ± 289	41.5 ± 2.4	59 ± 33	-2.5 ± 0.6	44.0 ± 1.1	<1	<1	<1
CCCCC1(CCCC)CS(=O)(=O)c2ccc(N(C)C)cc2C(c2cccc(NC(=S)Nc3ccc(C[n+]4cccc(CCCO)c4)cc3)c2)N1.[Br-] (centres unmarked) [Example 3747]	0.045	146 ± 70	245 ± 81	960 ± 259	42.2 ± 1.8	47 ± 23	-2.1 ± 1.0	44.3 ± 0.8	<1	<1	<1
CCCCC1(CCCC)CS(=O)(=O)c2ccc(N(C)C)cc2C(c2cccc(NC(=S)Nc3ccc(C[n+]4cccc(CCC(=O)OC)c4)cc3)c2)N1.[Br-] (centres unmarked) [Example 3752]	0.041	165 ± 47	358 ± 87	1112 ± 184	41.5 ± 1.0	56 ± 23	-2.3 ± 0.9	43.8 ± 1.2	<1	<1	<1
CCCCC1(CCCC)CS(=O)(=O)c2ccc(N(C)C)cc2C(c2cccc(NC(=S)Nc3ccc(C[n+]4ccccc4CCC)cc3)c2)N1.[Br-] (centres unmarked) [Example 5408]	0.032	197 ± 45	198 ± 65	1005 ± 102	42.2 ± 1.6	70 ± 11	-1.8 ± 0.5	44.0 ± 0.9	<1	<1	<1
